Experimental data from patent US20040072171A1, “Method for identifying compounds for modulating the activity of a tumor suppressor protein” (priority 2000, published 2004).

How the values were obtained:
MEK = conditions: merlin-inducible schwannoma cells, inhibitor for 2 or 12 hours
Method: Merlin-inducible schwannoma cells were plated onto 6-well plates at a density of 1.5×10^4 cells per well. 1 μg/ml doxycyclin was added where stated. After 16 hours, an MEK activation inhibitor (UO126; Promega) was added for 2 or 12 hours. 0 means no addition of inhibitor. The cells were harvested and solubilized in 2×Laemmli buffer, and the proteins were separated on a 10% SDS polyacrylamide gel. The proteins were transferred to a membrane, and an immune blot was carried out either with the polyclonal p27^Kip1 antibody C-19 from rabbit or with the Rb-specific antibody C-15 (Santa Cruz). The actin-specific antibody I-19 was used as loading control.

NIH3T3 cells = assay: Growth rate of NIH3T3 cells; assay type: cell-based, murine; conditions: 100 μg/ml, cell counts on the following 3 days
Method: A. Growth rate of NIH3T3 cells after addition of hyaluronan. 24-well plates were seeded in triplicate with NIH3T3 cells at a density of 0.5×10^4 cells. Where stated, the culture medium was treated the next day with 100 μg/ml hyaluranon (Healon). The cell counts were determined on each of the following 3 days.

p27^Kip1 = assay: Induction of p27Kip1 in NIH3T3 cells (immune blot); assay type: cell-based, murine; conditions: for level of cell division cycle inhibitor p27^Kip1: 30 minutes, hyaluronan 100 μg/ml or solCD44s 10 ng/ml
Method: B. Induction of p27^Kip1 by treatment with hyaluronan. […] The next day, they were treated either with 100 μg/ml of hyaluronan or with 10 ng/ml solCD44s, and the plates were incubated for 30 minutes. The cells were harvested in 2×Laemmli sample buffer, and an immune blot with a polyclonal, p27^Kip1-specific antibody from rabbit was carried out (C-19, Santa Cruz). A polyclonal actin-antibody from goat (I-19, Santa Cruz) was used as loading control.

Erk = assay: PDGF-dependent phosphorylation of Erk; assay type: cell-based, rat; conditions: clone 54, serum starvation, doxycyclin 8 hours, PDGF 5 ng/ml 5 minutes
Method: The cells were used to seed 6-well plates at Low density and 24-well plates at high density, with or without 0.8% methylcellulose. The cells remained free from serum for 24 hours and were treated with doxycyclin or left untreated for the last 8 hours. Then, the cells were stimulated for 5 minutes with 5 ng/ml PDGF and subsequently harvested in 2×Laemmli sample buffer, and the cell extracts were separated on a 10% SDS polyacrylamide gel. After the proteins had been transferred to the membrane, immunoblots were prepared with a phospho-Erk-specific antibody, and the bound antibody was detected. As a control for uniform loading of the separating gel with Erk, the membrane was stripped (freed from antibody) and anti-Erk-blotted.
C. […] Cells of clone 54 were plated at high or low cell density, left to grow for 24 hours with serum starvation and treated during the last 8 hours with doxycyclin (+) or left untreated (−). Where stated, the cells were treated for 2 hours with hyaluronidase (HAase, 5 U/μl), for 10 minutes with solCD44wt and/or for 5 minutes with PDGF (5ng/ml). The proteins of the lysates were separated by means of SDS-PAGE, and immune blots were carried out with phospho-Erk and Erk-specific antibodies. Clone 63 gave the same results as all the experiments in FIG. 6.
C. […] Cells were grown at low cell density and subsequently treated with doxycyclin with serum starvation cells as shown in FIG. 6C and assayed for the PDGF-dependent phosphorylation of Erk. Where stated, HA (100 μg/ml) was present for 10 minutes and PDGF (5 ng/ml) was present for 5 minutes. Experiments A to C were also carried out with clone 63, and similar results were obtained.

RT4-D6P2T cells = assay: Growth in culture vessels of merlin-inducible schwannoma clone 54; assay type: cell-based, rat; conditions: for merlin-dependent growth inhibition in confluent cell cultures: merlin expression induced by doxycyclin
Method: Growth in culture vessels: To determine the growth curves, each well of a 24-well plate was seeded with 5×10^3 cells (in FIG. 7: 2.5×10^3), and determinations in triplicate were carried out every 24 hours (days). Definition of the growth conditions:
1. Low cell density (=logarithmic or exponential growth) means a cell density of 500 cells per cm^2 24 hours after seeding.
2. high cell density (=confluent growth condition) is defined as a cell density of 5×10^3 cells per cm^2 24 hours after seeding.
A. The soluble extracellular domain of CD44 sequestrates different ligands of exponentially growing and confluent cells. In each case 3 wells of a 24-well plate were seeded in triplicate with cells of clone 54, and the cells were treated with doxycyclin in order to induce the expression of merlin. On day 1 (logarithmically growing cells) and on day 3 (confluent cells), 10 ng/ml of soluble extracellular CD44 domain, either of the wild type (solCD44 or solCD44wt) or of the glycosaminoglycan-binding mutant (solCD44mut), were added. As the control, cells were treated in the same manner without doxycylin (since the addition of solCD44 was ineffective, only one group of data is shown).
B. Hyaluronate delays growth. In each case 3 wells of a 24-well plate were seeded in triplicate with cells of clone 54. Doxycyclin and hyaluronate (100 μg/ml) were added as stated.

merlin = assay: Immune blot for dephosphorylation of merlin in clone 54 lysates; assay type: cell-based, rat; conditions: exponentially growing clone 54 cells, 8 hours doxycyclin
Method: For the immunoprecipitation of merlin, the cells were grown to confluence in 10 cm dishes, washed once with ice-cold PBS and then placed on ice and lysed with 1 ml lysis buffer per plate (50 mM Tris pH 7.4, 150 mM NaCl, 3 mM MgCl2, 0.5% NP-40, 1 mM PMSF, 10 μg/aprotinin ml, 10 μg/ml leupeptin). The DNA was sheared using a gauge 26 needle. The lysate was clarified by centrifugation, and the supernatant was incubated with 5 μg/ml merlin antibody at 4° C. overnight with gentle rotation. The reaction was subsequently treated with 30 μl of protein A agarose (dianova) and left to rotate for a further 3 hours at 4° C. The immune complexes were washed 4 times with cold lysis buffer and separated in 50 μl 2×Laemmli sample buffer. The protein was dissolved in a 10% SDS-PAGE, and immunoblots were generated with a merlin-specific antibody. For the treatment with calf intestine phosphatase (CIP), the lysate was incubated for 1 hour at 30° C. with 1 unit CIP prior to the immunoprecipitation. The coimmunoprecipitation of merlin and CD44 was carried out analogously, except that a different lysis buffer was used (20 mM Tris pH 7.4, 50 mM NaCl, 3 mM MgCl2, 0.5% NP40). The lysates were preincubated for 2 hours with protein A/G-agarose (Dianova) to remove unspecifically binding components, whereupon 5 μg/ml CD44 antibody 5G8 was added and the reaction was allowed to rotate overnight. […]

| Compound | hypophosphorylated Rb (MEK) | level of p27^Kip1 (MEK) | growth rate of NIH3T3 cells (NIH3T3 cells) | level of cell division cycle inhibitor p27^Kip1 (p27^Kip1) | induction of p21 and p27 (p27^Kip1; hyaluronate-induced activation of merlin) | PDGF-dependent phosphorylation of Erk / activation of merlin (Erk) | growth of clone 54 cells (RT4-D6P2T cells; hyaluronate 100 μg/ml, with doxycyclin) | phosphorylation state of merlin (merlin) | merlin-dependent growth inhibition in confluent cell cultures (RT4-D6P2T cells) | effect on growth of cells without doxycyclin (RT4-D6P2T cells; control cells without doxycyclin, 10 ng/ml) | growth of cultures in the logarithmic growth phase (RT4-D6P2T cells; logarithmically growing cells, merlin induced by doxycyclin, soluble CD44 10 ng/ml) |
| --- | --- | --- | --- | --- | --- | --- | --- | --- | --- | --- | --- |
| N#CC(=C(/N)Sc1ccccc1N)/C(C#N)=C(/N)Sc1ccccc1N [UO126] | increase | higher level |  |  |  |  |  |  |  |  |  |
| hyaluronate |  |  | reduced their growth rate | increased | induction of p21 and p27 | blocks the PDGF-dependent phosphorylation of Erk | delays growth | Induced dephosphorylation of merlin |  |  |  |
| solCD44wt: soluble extracellular CD44 domain of the wild type |  |  |  | increased |  | nullifies blocking of the activation of merlin |  | Induced dephosphorylation of merlin | growth inhibition is nullified | ineffective | growth inhibition is observed |
| hyaluronidase |  |  |  |  |  | destroys the ligand responsible for the activation of merlin |  |  | prevents the inhibition of growth |  |  |
